The results in this text go back to ChEMBL document CHEMBL1629695, “A novel polymyxin derivative that lacks the fatty acid tail and carries only three positive charges has strong synergism with agents excluded by the intact outer membrane” (Antimicrob Agents Chemother, 2010).

Bridge positions count the residues as written; N and C are the ends. Square brackets hold non-standard residues; d marks the D form. Peptide text beside a SMILES is read from it. * marks the point of attachment. Octanoyl = CCCCCCCC(=O)*; Dab = NCC[C@H](N)C(=O)O; Abu = CC[C@H](N)C(=O)O Some results are limits rather than exact numbers.

For data set [1], the system named is Escherichia coli. The data set can be described thus: Antimicrobial activity against Escherichia coli IH3080 assessed as zone of inhibition at 10 ug after 18 hrs by disk diffusion method. The class given is functional. (In general: A growth-free zone around the sample is the usual read-out of agar diffusion tests.)
The subject of data set [2] is Acinetobacter baumannii. The data set can be described thus: Antimicrobial activity against Acinetobacter baumannii ATCC 19606 assessed as zone of inhibition at 10 ug after 18 hrs by disk diffusion method in presence of 1 ug/ml rifampin. The class given is functional.
Data set [3] has as its system Escherichia coli. The data set can be described thus: Antimicrobial activity against Escherichia coli IH3080 assessed as zone of inhibition at 10 ug after 18 hrs by disk diffusion method in presence of 1 ug/ml rifampin. Type of data set: functional.
Data set [4] relates to Acinetobacter baumannii. The data set can be described thus: Antimicrobial activity against Acinetobacter baumannii ATCC 19606 assessed as zone of inhibition at 10 ug after 18 hrs by disk diffusion method. Type of data set: functional.
Data set [5] relates to Pseudomonas aeruginosa. The data set can be described thus: Antimicrobial activity against Pseudomonas aeruginosa ATCC 27853 assessed as zone of inhibition at 10 ug after 18 hrs by disk diffusion method in presence of 1 ug/ml rifampin. The class given is functional.
Data set [6] deals with Pseudomonas aeruginosa. The data set can be described thus: Antimicrobial activity against Pseudomonas aeruginosa ATCC 27853 assessed as zone of inhibition at 10 ug after 18 hrs by disk diffusion method. Type of data set: functional.
The nature of data set [7]: Drug level in Sprague-Dawley rat urine at 1 mg/kg, iv. The arrangement: dose 1 mg/kg, route intravenous. Type of data set: ADME, organism-based. The conditions noted are these: Sprague-Dawley, urine, read-out: Drug uptake.
Data set [8] concerns Enterobacter cloacae. Description: Ratio of MIC for Enterobacter cloacae ATCC 23355 to MIC for Enterobacter cloacae ATCC 23355 in presence of 4 ug/ml of NAB741. The class given is functional.
For data set [9], the system named is Acinetobacter baumannii. Description: Antimicrobial activity against Acinetobacter baumannii ATCC 19606 by Etest method in presence of 4 ug/ml NAB741. The class given is functional.
The test system of data set [10] is Escherichia coli. The data set can be described thus: Antimicrobial activity against Escherichia coli IH3080 by Etest method in presence of 4 ug/ml NAB741. Type of data set: functional.
Data set [11] has as its system Klebsiella pneumoniae. The data set can be described thus: Ratio of MIC for Klebsiella pneumoniae ATCC 13883 to MIC for Klebsiella pneumoniae ATCC 13883 in presence of 4 ug/ml of NAB741. Type of data set: functional.
Data set [12] concerns Klebsiella pneumoniae. The data set can be described thus: Antimicrobial activity against Klebsiella pneumoniae ATCC 13883 by Etest method in presence of 4 ug/ml NAB741. The class given is functional.
The test system of data set [13] is Escherichia coli. Description: Ratio of MIC for Escherichia coli ATCC 25922 to MIC for Escherichia coli ATCC 25922 in presence of 4 ug/ml of NAB741. The class given is functional.
Data set [14] deals with Escherichia coli. Description: Antimicrobial activity against Escherichia coli ATCC 25922 by Etest method in presence of 4 ug/ml NAB741. Type of data set: functional.
Data set [15] deals with Enterobacter cloacae. The data set can be described thus: Antimicrobial activity against Enterobacter cloacae ATCC 23355 by Etest method in presence of 4 ug/ml NAB741. Type of data set: functional.
For data set [16], the system named is Escherichia coli. Description: Ratio of MIC for Escherichia coli IH3080 to MIC for Escherichia coli IH3080 in presence of 4 ug/ml of NAB741. Type of data set: functional.
In data set [17] the test system is Acinetobacter baumannii. The data set can be described thus: Ratio of MIC for Acinetobacter baumannii ATCC 19606 to MIC for Acinetobacter baumannii ATCC 19606 in presence of 4 ug/ml of NAB741. The class given is functional.

`CN[C@H](C(=O)N[C@H](CO)C(=O)N[C@H]1CCNC(=O)[C@H]([C@@H](C)O)NC(=O)[C@H](CCN)NC(=O)[C@H](CCN)NC(=O)[C@H](CC(C)C)NC(=O)[C@@H](Cc2ccccc2)NC(=O)[C@H](CCN)NC1=O)[C@@H](C)O`: the “inhibition zone (IZ)” value in the data set with Escherichia coli [1] was 3 mm2; in the data set with Acinetobacter baumannii [2], 79 mm2; in the data set with Escherichia coli [3] it was 130 mm2; in the data set on Acinetobacter baumannii [4], 3 mm2; in the data set with Pseudomonas aeruginosa [5] it was 38 mm2; with Pseudomonas aeruginosa [6], 7 mm2.
In the case of `CC(=O)N[C@H](C(=O)NCCCC(=O)N[C@H]1CCNC(=O)[C@H]([C@@H](C)O)NC(=O)[C@H](CCN)NC(=O)[C@H](CCN)NC(=O)[C@H](CC(C)C)NC(=O)[C@@H](Cc2ccccc2)NC(=O)[C@H](CCN)NC1=O)[C@@H](C)O`, the “inhibition zone (IZ)” value came out at 3 mm2 with Escherichia coli [1]; 9 mm2 in the data set with Acinetobacter baumannii [2]; 8 mm2 in the data set on Escherichia coli [3]; 3 mm2 in the data set on Acinetobacter baumannii [4]; 3 mm2 with Pseudomonas aeruginosa [5]; 3 mm2 with Pseudomonas aeruginosa [6].
For `CC(=O)N[C@H](C(=O)N[C@H](CC(N)=O)C(=O)N[C@H]1CCNC(=O)[C@H]([C@@H](C)O)NC(=O)[C@H](CCN)NC(=O)[C@H](CCN)NC(=O)[C@H](CC(C)C)NC(=O)[C@@H](Cc2ccccc2)NC(=O)[C@H](CCN)NC1=O)[C@@H](C)O`, the “inhibition zone (IZ)” value is 3 mm2 in the data set with Escherichia coli [1]; 154 mm2 with Acinetobacter baumannii [2]; 110 mm2 in the data set on Escherichia coli [3]; 3 mm2 in the data set with Acinetobacter baumannii [4]; 3 mm2 with Pseudomonas aeruginosa [5]; 3 mm2 in the data set on Pseudomonas aeruginosa [6].
Regarding `CCCCCCCC(=O)N[C@H](C(=O)N[C@@H](CC)C(=O)N[C@H]1CCNC(=O)[C@H]([C@@H](C)O)NC(=O)[C@H](CCN)NC(=O)[C@H](CCN)NC(=O)[C@H](CC(C)C)NC(=O)[C@@H](Cc2ccccc2)NC(=O)[C@H](CCN)NC1=O)[C@@H](C)O` (Octanoyl-T[Abu][Dab][Dab][dF]L[Dab][Dab]T; lactam 3-C) [listing 1 of 2 here], the dose excreted in [7] turned out to be 7.16%.
For the compound `CCCCCCCC(=O)N[C@H](C(=O)N[C@@H](CC)C(=O)N[C@H]1CCNC(=O)[C@H]([C@@H](C)O)NC(=O)[C@H](CCN)NC(=O)[C@H](CCN)NC(=O)[C@H](CC(C)C)NC(=O)[C@@H](Cc2ccccc2)NC(=O)[C@H](CCN)NC1=O)[C@@H](C)O` (Octanoyl-T[Abu][Dab][Dab][dF]L[Dab][Dab]T; lactam 3-C) [listing 2 of 2 here], the “inhibition zone (IZ)” value was 32 mm2 in the data set with Escherichia coli [1]; 252 mm2 in the data set with Acinetobacter baumannii [2]; 206 mm2 in the data set with Escherichia coli [3]; 3 mm2 in the data set with Acinetobacter baumannii [4]; 55 mm2 with Pseudomonas aeruginosa [5]; 2 mm2 with Pseudomonas aeruginosa [6].
For the compound `CCCCCCCC(=O)N[C@H](C(=O)N[C@H](CO)C(=O)N[C@H]1CCNC(=O)[C@H]([C@@H](C)O)NC(=O)[C@H](CCN)NC(=O)[C@H](CCN)NC(=O)[C@H](CC(C)C)NC(=O)[C@@H](Cc2ccccc2)NC(=O)[C@H](CCN)NC1=O)[C@@H](C)O` (Octanoyl-T[dS][Dab][Dab][dF]L[Dab][Dab]T; lactam 3-C) [listing 1 of 2 here], the dose excreted in [7] worked out at 19.4%.
For the compound `CCCCCCCC(=O)N[C@H](C(=O)N[C@H](CO)C(=O)N[C@H]1CCNC(=O)[C@H]([C@@H](C)O)NC(=O)[C@H](CCN)NC(=O)[C@H](CCN)NC(=O)[C@H](CC(C)C)NC(=O)[C@@H](Cc2ccccc2)NC(=O)[C@H](CCN)NC1=O)[C@@H](C)O` (Octanoyl-T[dS][Dab][Dab][dF]L[Dab][Dab]T; lactam 3-C) [listing 2 of 2 here], the “inhibition zone (IZ)” value was found to be 170 mm2 with Escherichia coli [1]; 395 mm2 with Acinetobacter baumannii [2]; 212 mm2 with Escherichia coli [3]; 161 mm2 in the data set on Acinetobacter baumannii [4]; 87 mm2 with Pseudomonas aeruginosa [5]; 81 mm2 in the data set on Pseudomonas aeruginosa [6].
Usually MIC stands for the smallest concentration in the dilution series that meets the test's criterion for growth inhibition. Consider `CC[C@H]1OC(=O)[C@H](C)[C@@H](O[C@H]2C[C@@](C)(OC)[C@@H](O)[C@H](C)O2)[C@H](C)[C@@H](O[C@@H]2O[C@H](C)C[C@H](N(C)C)[C@H]2O)[C@](C)(O)C[C@@H](C)CN(C)[C@H](C)[C@@H](O)[C@]1(C)O` [AZITHROMYCIN], for which the Ratio in the data set with Enterobacter cloacae [8] is given as 16; in the data set with Klebsiella pneumoniae [11] it was 11; in the data set with Escherichia coli [13], 16; in the data set on Escherichia coli [16], 8; in the data set on Acinetobacter baumannii [17], 21. The MIC in the data set on Acinetobacter baumannii [9] turned out to be 1.5 µg/mL; in the data set with Escherichia coli [10], 0.094 µg/mL; in the data set on Klebsiella pneumoniae [12] it was 0.125 µg/mL; with Escherichia coli [14], 0.125 µg/mL; in the data set on Enterobacter cloacae [15] it was 0.25 µg/mL.
As to `CC(=O)O[C@H]1C[C@@]2(C)[C@@H](C[C@@H](O)[C@H]3[C@@]4(C)CC[C@@H](O)[C@@H](C)[C@@H]4CC[C@@]32C)/C1=C(\CCC=C(C)C)C(=O)O` [FUSIDIC ACID], the Ratio in the data set with Enterobacter cloacae [8] is listed as over 130; with Klebsiella pneumoniae [11], over 5; with Escherichia coli [13], over 170; in the data set on Escherichia coli [16], over 130; in the data set on Acinetobacter baumannii [17], over 43. The MIC with Acinetobacter baumannii [9] is 6 µg/mL; in the data set on Escherichia coli [10], 2 µg/mL; in the data set with Klebsiella pneumoniae [12], 48 µg/mL; in the data set on Escherichia coli [14] it was 1.5 µg/mL; in the data set with Enterobacter cloacae [15], 2 µg/mL.
In the case of `C/C(=C\C(=O)OCCCCCCCCC(=O)O)C[C@@H]1OC[C@H](C[C@@H]2O[C@H]2[C@@H](C)[C@H](C)O)[C@@H](O)[C@H]1O` [MUPIROCIN], the Ratio is 50 in the data set with Enterobacter cloacae [8]; 8 in the data set with Klebsiella pneumoniae [11]; 64 in the data set on Escherichia coli [13]; 24 with Escherichia coli [16]; under 2 in the data set on Acinetobacter baumannii [17]. For the same compound, the MIC came to 512 µg/mL with Acinetobacter baumannii [9]; 1 µg/mL in the data set with Escherichia coli [10]; 6 µg/mL in the data set on Klebsiella pneumoniae [12]; 0.75 µg/mL in the data set on Escherichia coli [14]; 0.25 µg/mL in the data set with Enterobacter cloacae [15].
`CC(C)C[C@@H]1NC(=O)[C@@H](Cc2ccccc2)NC(=O)[C@H](CCN)NC(=O)[C@@H](NC(=O)[C@H](CCN)NC(=O)[C@@H](N)[C@@H](C)O)CCNC(=O)[C@H]([C@@H](C)O)NC(=O)[C@H](CCN)NC(=O)[C@H](CCN)NC1=O` [POLYMYXIN B NONAPEPTIDE] (H-T[Dab][Dab][Dab][dF]L[Dab][Dab]T; lactam 3-C): the “inhibition zone (IZ)” value with Escherichia coli [1] was determined as 3 mm2; in the data set with Acinetobacter baumannii [2] it was 155 mm2; in the data set with Escherichia coli [3] it was 143 mm2; in the data set with Acinetobacter baumannii [4], 3 mm2; in the data set on Pseudomonas aeruginosa [5], 169 mm2; with Pseudomonas aeruginosa [6] it was 144 mm2.
On to `CN[C@H](CC(C)C)C(=O)N[C@H]1C(=O)N[C@@H](CC(N)=O)C(=O)N[C@H]2C(=O)N[C@H]3C(=O)N[C@H](C(=O)N[C@H](C(=O)O)c4cc(O)cc(O)c4-c4cc3ccc4O)[C@H](O)c3ccc(c(Cl)c3)Oc3cc2cc(c3O[C@@H]2O[C@H](CO)[C@@H](O)[C@H](O)[C@H]2O[C@H]2C[C@](C)(N)[C@H](O)[C@H](C)O2)Oc2ccc(cc2Cl)[C@H]1O` [VANCOMYCIN], for which the Ratio in the data set with Enterobacter cloacae [8] is recorded as over 170; in the data set with Klebsiella pneumoniae [11], over 2; in the data set with Escherichia coli [13], over 32; in the data set with Escherichia coli [16] it was over 16; with Acinetobacter baumannii [17], over 11. Further, the MIC with Acinetobacter baumannii [9] turned out to be 24 µg/mL; with Escherichia coli [10] it was 16 µg/mL; in the data set on Klebsiella pneumoniae [12] it was 128 µg/mL; with Escherichia coli [14], 8 µg/mL; in the data set with Enterobacter cloacae [15], 1.5 µg/mL.
For the compound POLYMYXIN B, the inhibition zone (IZ) with Escherichia coli [1] was found to be 129 mm2; in the data set on Acinetobacter baumannii [2], 202 mm2; in the data set with Escherichia coli [3], 133 mm2; with Acinetobacter baumannii [4] it was 185 mm2; in the data set on Pseudomonas aeruginosa [5], 166 mm2; in the data set with Pseudomonas aeruginosa [6] it was 151 mm2.
